Laboratory results from patent publication US20250319032A1, “PHARMACEUTICAL COMPOSITIONS OF RIBOCICLIB” (Novartis AG, priority 2024, published 2025).

test: DMP433 (N-nitroso-ribociclib) content in ribociclib base (B10) and ribociclib succinate (B12, drug substance) batches and process experiments, LC-MS/MS or HPLC-HRMS; format: physicochemical; settings: drug substance DS06 used for tablet core experiments and binary mixtures
Source text: The method of testing for the presence and/or total amount of nitrosamines (such as the presence and/or total amount of N-nitroso-ribociclib in free or salt form) that is used in the methods of the invention may be any method which allows for the detection of nitrosamines in a composition. For example, the method may involve the Griess test described above. In such a method, the nitrosamines may be first denitrosated (e.g., by photolysis) to form a nitrite, which is then detected in the Griess test. Alternatively, the method may include high performance liquid chromatography (HPLC)- and/or gas chromatography (GC)-mass spectroscopy. An example of a method of testing for the presence and amount of nitrosamines (namely N-nitroso-ribociclib) is provided herein as Example 14. […]
2.7. […] Dissolve the substance using vortex and fill to volume with solvent (50% MeOH). • 3. Filter through 0.2 μm PVDF (polyvinylidene difluoride) or PTFE (polytetrafluoroethylene) filter into a HPLC amber vial, discard the first 0.5 ml.
A calibration curve for DMP433 is created, using calibration standard solutions L1-L6, and expressing the relationship between responses (peak areas) and standard concentrations (ng/ml). For L1, the average of 6 injections is used. Linear regression is weighed with 1/amount. […]

DMP433 content (corrected value) at release [ppm] | Structure (SMILES)
0.655 | CN(C)C(=O)c1cc2cnc(Nc3ccc(N4CCNCC4)cn3)nc2n1C1CCCC1.O=C(O)CCC(=O)O [Batch B699003AA]

same assay, conditions: re-slurry of LEE011-B12 in iPrOH at 10° C.

DMP433 in LEE011-B12 [ppm] | Structure (SMILES)
64 | CN(C)C(=O)c1cc2cnc(Nc3ccc(N4CCNCC4)cn3)nc2n1C1CCCC1.O=C(O)CCC(=O)O [LEE011-haenepa1-013]

same assay, conditions: ribociclib base (LEE011 B10)

DMP433 [ppm] LOQ (0.0625 ppm) | DMP433 [ppm], result in brackets (extrapolation, estimate of actual value below LOQ) [ppm] | Structure (SMILES)
LOQ | 0.019 | CN(C)C(=O)c1cc2cnc(Nc3ccc(N4CCNCC4)cn3)nc2n1C1CCCC1 [Batch B704196]
LOQ | 0.035 | CN(C)C(=O)c1cc2cnc(Nc3ccc(N4CCNCC4)cn3)nc2n1C1CCCC1 [Batch B0705467]
LOQ | 0.030 | CN(C)C(=O)c1cc2cnc(Nc3ccc(N4CCNCC4)cn3)nc2n1C1CCCC1.O=C(O)CCC(=O)O [Batch B0705468]
LOQ | 0.037 | CN(C)C(=O)c1cc2cnc(Nc3ccc(N4CCNCC4)cn3)nc2n1C1CCCC1 [Batch B705465]

same assay, conditions: starting material of 5 kg technical batches

DMP433 in B10 [ppb] | Structure (SMILES)
55.8 | CN(C)C(=O)c1cc2cnc(Nc3ccc(N4CCNCC4)cn3)nc2n1C1CCCC1.O=C(O)CCC(=O)O [Technical batch 2]
55.8 | CN(C)C(=O)c1cc2cnc(Nc3ccc(N4CCNCC4)cn3)nc2n1C1CCCC1.O=C(O)CCC(=O)O [Technical batch 1]

same assay, conditions: technical batch 2 (distilled) vs technical batch 1 (non-distilled)

reduction of the amount of DMP433 formed by use of distilled iPrOH | Structure (SMILES)
approx. 50% | CN(C)C(=O)c1cc2cnc(Nc3ccc(N4CCNCC4)cn3)nc2n1C1CCCC1.O=C(O)CCC(=O)O [Technical batch 2]

same assay, conditions: washing of isolated ribociclib succinate, laboratory scale (conditions per experiment)

DMP433 in LEE011-B12 [ppb] | Structure (SMILES)
746 | CN(C)C(=O)c1cc2cnc(Nc3ccc(N4CCNCC4)cn3)nc2n1C1CCCC1.O=C(O)CCC(=O)O [LEE011-haenepa1-012]

test: Nitrite content (ion chromatography; LC-FLD with DAN derivatisation; Griess test) in drug substance, intermediates, reagents, solvents, filters, excipients; format: physicochemical; settings: IPA used in resin loading experiments
Source text: The method of testing for the presence and/or total amount of nitrites that is used in the methods of the invention may be any method which allows for the detection and/or quantitation of nitrites in a composition. For example, the method may be the Griess test. The Griess test allows for the detection and analysis of nitrite by the formation of a red-pink colour upon treatment of a nitrite-containing sample with the Griess reagent. The Griess reagent consists of two components in an acidic solution: an aniline derivative and a coupling agent. The most common arrangements use sulfanilamide and N-(1-naphthyl)ethylenediamine. For example 0.2% N-(1-naphthyl)ethylenediamine dihydrochloride and 2% sulfanilamide in 5% phosphoric acid may be used as a Griess reagent. Other aniline derivatives that may be used in a Griess reagent include sulfanilic acid, nitroaniline, and p-aminoacetophenone.
The Griess test involves two subsequent reactions, as shown in the scheme below. When the aniline derivative (e.g., sulfanilamide) is added, the nitrite ion reacts with it in the Griess diazotization reaction to form a diazonium salt, which then reacts with N-(1-naphthyl)ethylenediamine in an azo-coupling reaction, forming a pink-red azo-dye. Using a spectrophotometer, the nitrite concentration can then be quantitatively detected.
Additionally purified water; e.g. Milli Q • 2.
• 10 mM KH2PO4 Weigh accurately about 1.361 g of KH2PO4 into a 1 L volumetric flask, dissolve it in approximately 950 mL of additionally purified water and adjust the pH to 8.0 (with 2.7 M NaOH). Make up to the mark with additionally purified water. • 0.62 M HCl Add a few millilitres (e.g. 20 mL) of additionally purified water to a 200 mL volumetric flask, add 10.280 mL of concentrated HCl, mix and make up to the mark with additionally purified water. • 2.7 M NaOH Weigh accurately about 1.092 g of NaOH pellets into a 10 mL volumetric flask and dissolve it in additionally purified water. Cool to room temperature and make up to the mark with the same solvent. • Reagent DAN Weigh accurately about 5 mg of 2,3-diaminophthalene into a 100 mL volumetric flask and dissolve it with the solvent (methanol/water 1:1 (v/v)). Dilute up to the mark and ensure visual full dissolution. Use an amberglass flask. • Mobile phase A Mix 950 mL of 10 mM KH2PO4 solution (pH=8) and add 50 mL methanol. • Mobile phase B Methanol. • Solvent Methanol/water 1:1 (v/v), e.g. mix 2000 mL of additionally purified water and 2000 mL methanol.
• Instrument: HPLC with FLR detector; e.g. Waters Arc or equivalent • Column: C18 50×4.6 mm, 2.5 μm, e.g. XBridge C18 2.5 μm, 4.650 mm or equivalent
• Notes It is recommended to wear additional protective equipment (face mask and gloves) during weighing. • It is recommended to wash the column with 50% methanol after the analysis (example of preparation: mix 500 mL methanol and 500 m1 of additionally purified water). • It is recommended to rinse the injector with solvent after each injection. • All glassware and tools should be rinsed with additionally purified water before use. It is not recommended to leave the solutions open for a longer time before measurement. • Blank solution 1 Transfer 1 mL of solvent into a HPLC vial and perform derivatization as described below. • Blank solution 2 Transfer 10 mL of solvent into a single use glass vial and mix it on a magnetic stirrer for 30 min. Transfer the solution into a 5 mL centrifuge tube and centrifuge for 10 min at 12000 rpm. […] Fill up to the mark with solvent and mix. • (Cnitrite≈0.0005 mg/mL) • Comparison solution Transfer 10 mL of nitrite stock solution into a 500 mL volumetric flask. • (2 parallels) Fill up to the mark with solvent and mix. • Transfer 1 mL solution into a HPLC vial and perform the derivatization as described below. • (Cnitrite≈100 ppb) • Sample solution Accurately weigh about 1000 mg of the sample into a glass vial for single use and add 10 mL of solvent.

Nitrite in IPA [ppb] | Structure (SMILES)
1.6 | CC(C)O [IPA]

same assay, conditions: ribociclib base (LEE011 B10), ion chromatography

Nitrite [ppm] LOD (1 ppm) | Structure (SMILES)
<LOD | CN(C)C(=O)c1cc2cnc(Nc3ccc(N4CCNCC4)cn3)nc2n1C1CCCC1 [Batch B687416]

same assay, conditions: ribociclib succinate drug substance batches at release

Nitrite NAP method (ppm) | Nitrite NAT enhanced sample prep. (ppm) | Structure (SMILES)
0.2 | <0.1 | CN(C)C(=O)c1cc2cnc(Nc3ccc(N4CCNCC4)cn3)nc2n1C1CCCC1.O=C(O)CCC(=O)O [Batch B709049]
0.2 | 0.1 | CN(C)C(=O)c1cc2cnc(Nc3ccc(N4CCNCC4)cn3)nc2n1C1CCCC1.O=C(O)CCC(=O)O [Batch B707657]
0.1 | 0.9 | CN(C)C(=O)c1cc2cnc(Nc3ccc(N4CCNCC4)cn3)nc2n1C1CCCC1.O=C(O)CCC(=O)O [Batch B711440]
0.2 | <0.1 | CN(C)C(=O)c1cc2cnc(Nc3ccc(N4CCNCC4)cn3)nc2n1C1CCCC1.O=C(O)CCC(=O)O [Batch B698298]
0.1 | <0.1 | CN(C)C(=O)c1cc2cnc(Nc3ccc(N4CCNCC4)cn3)nc2n1C1CCCC1.O=C(O)CCC(=O)O [Batch B699003]
0.3 | 0.3 | CN(C)C(=O)c1cc2cnc(Nc3ccc(N4CCNCC4)cn3)nc2n1C1CCCC1.O=C(O)CCC(=O)O [Batch B695105]
0.4 | 0.3 | CN(C)C(=O)c1cc2cnc(Nc3ccc(N4CCNCC4)cn3)nc2n1C1CCCC1.O=C(O)CCC(=O)O [Batch B698296]
0.2 | 0.1 | CN(C)C(=O)c1cc2cnc(Nc3ccc(N4CCNCC4)cn3)nc2n1C1CCCC1.O=C(O)CCC(=O)O [Batch B710668]
0.2 | <0.1 | CN(C)C(=O)c1cc2cnc(Nc3ccc(N4CCNCC4)cn3)nc2n1C1CCCC1.O=C(O)CCC(=O)O [Batch B709938]
0.3 | 0.4 | CN(C)C(=O)c1cc2cnc(Nc3ccc(N4CCNCC4)cn3)nc2n1C1CCCC1.O=C(O)CCC(=O)O [Batch B696590]
0.2 | <0.1 | CN(C)C(=O)c1cc2cnc(Nc3ccc(N4CCNCC4)cn3)nc2n1C1CCCC1.O=C(O)CCC(=O)O [Batch B696589]
0.3 | 0.4 | CN(C)C(=O)c1cc2cnc(Nc3ccc(N4CCNCC4)cn3)nc2n1C1CCCC1.O=C(O)CCC(=O)O [Batch B698295]
0.2 | <0.1 | CN(C)C(=O)c1cc2cnc(Nc3ccc(N4CCNCC4)cn3)nc2n1C1CCCC1.O=C(O)CCC(=O)O [Batch B709051]
0.2 | <0.1 | CN(C)C(=O)c1cc2cnc(Nc3ccc(N4CCNCC4)cn3)nc2n1C1CCCC1.O=C(O)CCC(=O)O [Batch B708688]

same assay, conditions: ribociclib succinate drug substance batches at release; manufacturer Raybow - DS04

Nitrite NAT enhanced sample prep. (ppm) | Structure (SMILES)
<0.1 | CN(C)C(=O)c1cc2cnc(Nc3ccc(N4CCNCC4)cn3)nc2n1C1CCCC1.O=C(O)CCC(=O)O [RIBOCICLIB SUCCINATE 833268A212]
0.1 | CN(C)C(=O)c1cc2cnc(Nc3ccc(N4CCNCC4)cn3)nc2n1C1CCCC1.O=C(O)CCC(=O)O [RIBOCICLIB SUCCINATE 833268A201]
<0.1 | CN(C)C(=O)c1cc2cnc(Nc3ccc(N4CCNCC4)cn3)nc2n1C1CCCC1.O=C(O)CCC(=O)O [RIBOCICLIB SUCCINATE 833268R014]
0.1 | CN(C)C(=O)c1cc2cnc(Nc3ccc(N4CCNCC4)cn3)nc2n1C1CCCC1.O=C(O)CCC(=O)O [RIBOCICLIB SUCCINATE 833268A207]
<0.1 | CN(C)C(=O)c1cc2cnc(Nc3ccc(N4CCNCC4)cn3)nc2n1C1CCCC1.O=C(O)CCC(=O)O [RIBOCICLIB SUCCINATE 833268A211]

same assay, conditions: ribociclib succinate drug substance batches at release; manufacturer Raybow - DS05

Nitrite NAT enhanced sample prep. (ppm) | Structure (SMILES)
0.1 | CN(C)C(=O)c1cc2cnc(Nc3ccc(N4CCNCC4)cn3)nc2n1C1CCCC1.O=C(O)CCC(=O)O [RIBOCICLIB SUCCINATE 834325A016]
0.1 | CN(C)C(=O)c1cc2cnc(Nc3ccc(N4CCNCC4)cn3)nc2n1C1CCCC1.O=C(O)CCC(=O)O [RIBOCICLIB SUCCINATE 833268A201]
0.1 | CN(C)C(=O)c1cc2cnc(Nc3ccc(N4CCNCC4)cn3)nc2n1C1CCCC1.O=C(O)CCC(=O)O [RIBOCICLIB SUCCINATE 833268A207]
0.1 | CN(C)C(=O)c1cc2cnc(Nc3ccc(N4CCNCC4)cn3)nc2n1C1CCCC1.O=C(O)CCC(=O)O [RIBOCICLIB SUCCINATE 834325A015]
